Measured values published in US20250223268A1, “4-Methylsulfonylbenzamide Compound, Preparation Method, Herbicidal Composition And Use” (Jiangsu Flag Chemical Industry Co., Ltd., priority 2022, published 2025).

Experiments:
Assay in all cases: Greenhouse herbicidal activity assay, post-emergence
Type in all cases: in vivo
Conditions in all cases: Post-emergence test, rate 150 g a.i./hm^2; grade by fresh weight inhibition rate
[1] = system: Cyperus iria
Summary of the method: (§1)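 Letter grades (A: ≥80% to 100%; C: ≥40% to <60%; E: <20%) express fresh weight inhibition recorded 14-21 days post-spray. Weeds were treated on the leaves once they reached 3-6 leaves in chamber-grown pots, allowed to dry naturally, then kept in the chamber.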

[2] = system: Eclipta prostrata
Summary of the method: as §1

[3] = system: Leptochloa chinensis
Summary of the method: as §1

[4] = system: Digitaria sanguinalis
Summary of the method: as §1

[5] = system: Echinochloa crusgalli
Summary of the method: as §1

Structure (SMILES) | Control efficacy grade, Cyperus iria [1] | Control efficacy grade, Eclipta prostrata [2] | Control efficacy grade, Leptochloa chinensis [3] | Control efficacy grade, Digitaria sanguinalis [4] | Control efficacy grade, Echinochloa crusgalli [5]
Cn1ncnc1NC(=O)c1ccc(S(C)(=O)=O)c(SC2CCC2)c1Cl [Compound 2-37] | A (Fresh weight inhibition rate≥80% to 100%) | A (Fresh weight inhibition rate≥80% to 100%) | A (Fresh weight inhibition rate≥80% to 100%) | B (Fresh weight inhibition rate≥260% to <80%) | A (Fresh weight inhibition rate≥80% to 100%)
Cc1nnc(NC(=O)c2ccc(S(C)(=O)=O)c([S+]([O-])CC3CC3)c2Cl)o1 (racemic) [Compound 3-38] | A (Fresh weight inhibition rate≥80% to 100%) | A (Fresh weight inhibition rate≥80% to 100%) | A (Fresh weight inhibition rate≥80% to 100%) | A (Fresh weight inhibition rate≥80% to 100%) | A (Fresh weight inhibition rate≥80% to 100%)
Cn1ncnc1NC(=O)c1ccc(S(C)(=O)=O)c(SCC2CC2)c1Cl [Compound 2-27] | A (Fresh weight inhibition rate≥80% to 100%) | A (Fresh weight inhibition rate≥80% to 100%) | A (Fresh weight inhibition rate≥80% to 100%) | A (Fresh weight inhibition rate≥80% to 100%) | A (Fresh weight inhibition rate≥80% to 100%)
CCc1nnc(NC(=O)c2ccc(S(C)(=O)=O)c(SCC(F)(F)F)c2Cl)o1 [Compound 3-439] | A (Fresh weight inhibition rate≥80% to 100%) | A (Fresh weight inhibition rate≥80% to 100%) | A (Fresh weight inhibition rate≥80% to 100%) | A (Fresh weight inhibition rate≥80% to 100%) | A (Fresh weight inhibition rate≥80% to 100%)
CCC(C)[S+]([O-])c1c(S(C)(=O)=O)ccc(C(=O)Nc2nnc(C)o2)c1Cl (mixture of isomers) [Compound 3-19] | A (Fresh weight inhibition rate≥80% to 100%) | A (Fresh weight inhibition rate≥80% to 100%) | A (Fresh weight inhibition rate≥80% to 100%) | A (Fresh weight inhibition rate≥80% to 100%) | A (Fresh weight inhibition rate≥80% to 100%)
CCc1nnc(NC(=O)c2ccc(S(C)(=O)=O)c([S+]([O-])C3CCC3)c2Cl)o1 (racemic) [Compound 3-425] | A (Fresh weight inhibition rate≥80% to 100%) | A (Fresh weight inhibition rate≥80% to 100%) | A (Fresh weight inhibition rate≥80% to 100%) | A (Fresh weight inhibition rate≥80% to 100%) | A (Fresh weight inhibition rate≥80% to 100%)
CC(C)[S+]([O-])c1c(S(C)(=O)=O)ccc(C(=O)Nc2nnc(C3CC3)o2)c1Cl (single isomer, unassigned) [Compound 3-622] | A (Fresh weight inhibition rate≥80% to 100%) | A (Fresh weight inhibition rate≥80% to 100%) | A (Fresh weight inhibition rate≥80% to 100%) | A (Fresh weight inhibition rate≥80% to 100%) | A (Fresh weight inhibition rate≥80% to 100%)
Cc1nonc1NC(=O)c1ccc(S(C)(=O)=O)c([S+]([O-])C2CC2)c1Cl (racemic) [Compound 4-38] | A (Fresh weight inhibition rate≥80% to 100%) | A (Fresh weight inhibition rate≥80% to 100%) | A (Fresh weight inhibition rate≥80% to 100%) | A (Fresh weight inhibition rate≥80% to 100%) | A (Fresh weight inhibition rate≥80% to 100%)
CS(=O)(=O)c1ccc(C(=O)Nc2nnco2)c(Cl)c1SCC1CC1 [Compound 3-298] | A (Fresh weight inhibition rate≥80% to 100%) | A (Fresh weight inhibition rate≥80% to 100%) | A (Fresh weight inhibition rate≥80% to 100%) | A (Fresh weight inhibition rate≥80% to 100%) | A (Fresh weight inhibition rate≥80% to 100%)
